Source: PubChem BioAssay AID248 (DTP/NCI, 2004)
Values joined by “and” are separate entries in the source; they are usually repeats but may differ in a detail not shown here. Equal values may be shown once. Toxic doses and inconclusive results are not listed. Cut-off read from the data, not from the text of the source: active = T/C of 150% or more; inactive = T/C below 125%.

System: L1210 leukemia ip in BDF1 mice, survival T/C
Experiment: NCI In Vivo Anticancer Drug Screen. Data for tumor model L1210 Leukemia (intraperitoneal) in B6D2F1 (BDF1) mice
Conditions: endpoint: mean survival time, higher = longer survival
In short: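 Each compound was tested against a transplantable tumor grown in mice. The endpoint was survival, with treated animals benchmarked against vehicle controls as a simple ratio.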

[1] = dose: 12.5 mg/kg/injection, schedule: Q01DX009 (ip), vehicle: saline with Tween-80
[2] = dose: 25.0 mg/kg/injection, schedule: Q01DX009 (ip), vehicle: saline with Tween-80
[3] = dose: 25.0 mg/kg/injection, schedule: Q04DX003 (ip), vehicle: saline with Tween-80
[4] = dose: 50.0 mg/kg/injection, schedule: Q01DX009 (ip), vehicle: saline with Tween-80
[5] = dose: 200.0 mg/kg/injection, schedule: Q01DX009 (ip), vehicle: saline with Tween-80
[6] = dose: 400.0 mg/kg/injection, schedule: Q01DX009 (ip), vehicle: saline with Tween-80
[7] = dose: 100.0 mg/kg/injection, schedule: Q04DX002 (ip), vehicle: Klucel (hydroxypropylcellulose) (HPC)
[8] = dose: 200.0 mg/kg/injection, schedule: Q04DX002 (ip), vehicle: Klucel (hydroxypropylcellulose) (HPC)
[9] = dose: 400.0 mg/kg/injection, schedule: Q04DX002 (ip), vehicle: Klucel (hydroxypropylcellulose) (HPC)
[10] = dose: 100.0 mg/kg/injection, schedule: Q01DX001 (ip), vehicle: saline with Tween-80
[11] = dose: 200.0 mg/kg/injection, schedule: Q01DX001 (ip), vehicle: saline with Tween-80
[12] = dose: 400.0 mg/kg/injection, schedule: Q01DX001 (ip), vehicle: saline with Tween-80
[13] = dose: 100.0 mg/kg/injection, schedule: Q01DX001 (ip), vehicle: saline
[14] = dose: 100.0 mg/kg/injection, schedule: Q01DX009 (ip), vehicle: saline with Tween-80
[15] = dose: 200.0 mg/kg/injection, schedule: Q01DX001 (ip), vehicle: saline
[16] = dose: 400.0 mg/kg/injection, schedule: Q01DX001 (ip), vehicle: saline

Measured: T/C

Cc1ccc(Cl)cc1NC(=O)Nc1ccc(F)c([N+](=O)[O-])c1
inactive: [1] 95 % of control and 90 % of control | [2] 88 % of control and 92 % of control | [3] 90 % of control | [4] 92 % of control | dose: 50.0 mg/kg/injection, schedule: Q04DX003 (ip), vehicle: saline with Tween-80 87 % of control | dose: 100.0 mg/kg/injection, schedule: Q04DX002 (ip), vehicle: saline with Tween-80 96 % of control and 89 % of control | [5] 93 % of control and 100 % of control | dose: 200.0 mg/kg/injection, schedule: Q04DX002 (ip), vehicle: saline with Tween-80 101 % of control and 91 % of control | [6] 93 % of control and 104 % of control | dose: 400.0 mg/kg/injection, schedule: Q04DX002 (ip), vehicle: saline with Tween-80 93 % of control and 94 % of control

CC(C)OC(=S)SCC(=O)c1ccccc1
inactive: [7] 92 % of control | [8] 101 % of control | [9] 99 % of control

CCCCC(=O)OCC1OC(n2cnc3c(=S)nc[nH]c32)C(OC(=O)CCCC)C1OC(=O)CCCC (stereo not drawn)
active: dose: 50.0 mg/kg/injection, schedule: Q01DX015 (ip), vehicle: carboxymethylcellulose (CMC) 151 % of control | dose: 100.0 mg/kg/injection, schedule: Q01DX015 (ip), vehicle: carboxymethylcellulose (CMC) 172 % of control | dose: 200.0 mg/kg/injection, schedule: Q01DX Z (ip), vehicle: carboxymethylcellulose (CMC) 161 % of control
inactive: dose: 50.0 mg/kg/injection, schedule: Q01DX Z (ip), vehicle: carboxymethylcellulose (CMC) 117 % of control | dose: 400.0 mg/kg/injection, schedule: Q01DX Z (ip), vehicle: carboxymethylcellulose (CMC) 87 % of control

O=C(O)c1cc(Br)ccc1O
inactive: [7] 98 % of control | [8] 98 % of control | [9] 102 % of control

O=C(NNCN1C(=O)c2ccccc2C1=O)c1ccccc1
inactive: [5] 90 % of control

O=[N+]([O-])c1ccc(N/N=C/CCl)c([N+](=O)[O-])c1
inactive: dose: 6.25 mg/kg/injection, schedule: Q01DX009 (ip), vehicle: saline with Tween-80 94 % of control and 98 % of control | dose: 6.25 mg/kg/injection, schedule: Q04DX003 (ip), vehicle: saline with Tween-80 99 % of control | [1] 102 % of control and 105 % of control | dose: 12.5 mg/kg/injection, schedule: Q04DX003 (ip), vehicle: saline with Tween-80 87 % of control | [2] 98 % of control and 103 % of control | [3] 91 % of control

CC1=C(CCCO)/C(=N/Nc2ccc([N+](=O)[O-])cc2[N+](=O)[O-])CCC1
inactive: dose: 25.0 mg/kg/injection, schedule: Q04DX002 (ip), vehicle: saline with Tween-80 97 % of control | [10] 105 % of control | [11] 87 % of control | [12] 92 % of control

CN(C)N=Nc1ccc(Cl)cc1
inactive: dose: 37.5 mg/kg/injection, schedule: Q04DX003 (ip), vehicle: saline with Tween-80 96 % of control | dose: 50.0 mg/kg/injection, schedule: Q01DX001 (ip), vehicle: saline with Tween-80 106 % of control | [4] 86 % of control | dose: 75.0 mg/kg/injection, schedule: Q04DX003 (ip), vehicle: saline with Tween-80 97 % of control | [10] 104 % of control | [13] 103 % of control | [14] 87 % of control | dose: 150.0 mg/kg/injection, schedule: Q04DX003 (ip), vehicle: saline with Tween-80 104 % of control | [11] 113 % of control | [15] 107 % of control | [5] 90 % of control | dose: 300.0 mg/kg/injection, schedule: Q04DX003 (ip), vehicle: saline with Tween-80 108 % of control | [16] 97 % of control | [6] 91 % of control

O=c1oc2ccc3ccccc3c2c(-c2ccc(O)cc2)c1-c1ccccc1
inactive: [10] 89 % of control | [11] 92 % of control | [12] 92 % of control

O=C(O)CCCCCN1C(=O)c2cccnc2C1=O
inactive: dose: 75.0 mg/kg/injection, schedule: Q04DX003 (ip), vehicle: carboxymethylcellulose (CMC) 103 % of control | dose: 150.0 mg/kg/injection, schedule: Q04DX003 (ip), vehicle: carboxymethylcellulose (CMC) 97 % of control | dose: 300.0 mg/kg/injection, schedule: Q04DX003 (ip), vehicle: carboxymethylcellulose (CMC) 98 % of control

C=CCOC(=O)Nc1cccc2ccccc12
inactive: [7] 91 % of control | [8] 94 % of control | [9] 94 % of control

CCC(COC(=O)c1ccc(N(CC)CC)cc1)NC1CCCCC1 (stereo not drawn)
inactive: dose: 75.0 mg/kg/injection, schedule: Q01DX001 (ip), vehicle: carboxymethylcellulose (CMC) 95 % of control | dose: 150.0 mg/kg/injection, schedule: Q01DX001 (ip), vehicle: carboxymethylcellulose (CMC) 95 % of control | dose: 300.0 mg/kg/injection, schedule: Q01DX001 (ip), vehicle: carboxymethylcellulose (CMC) 94 % of control

CCC[CH2][Sn]1([CH2]CCC)[O]C(=O)CCC(=O)[O]1
inactive: dose: 1.56 mg/kg/injection, schedule: Q01DX009 (ip), vehicle: Klucel (hydroxypropylcellulose) (HPC) 113 % of control | dose: 3.12 mg/kg/injection, schedule: Q01DX009 (ip), vehicle: Klucel (hydroxypropylcellulose) (HPC) 87 % of control

COc1cccc(-n2cc(C#N)c3c(C)cc(C)nc32)c1
inactive: [13] 87 % of control | [15] 91 % of control | [16] 87 % of control

O=C(O)c1ccncc1C(=O)c1csc2ccccc12
inactive: dose: 25.0 mg/kg/injection, schedule: Q01DX009 (ip), vehicle: saline 108 % of control | dose: 50.0 mg/kg/injection, schedule: Q01DX009 (ip), vehicle: saline 102 % of control | dose: 50.0 mg/kg/injection, schedule: Q04DX003 (ip), vehicle: acetone 99 % of control | dose: 100.0 mg/kg/injection, schedule: Q01DX009 (ip), vehicle: saline 94 % of control | dose: 100.0 mg/kg/injection, schedule: Q04DX003 (ip), vehicle: acetone 99 % of control

Cc1ccc(S(=O)(=O)NC(=O)OC/C=C/c2ccccc2)cc1
inactive: dose: 100.0 mg/kg/injection, schedule: Q01DX009 (ip), vehicle: alcohol 96 % of control | dose: 200.0 mg/kg/injection, schedule: Q01DX009 (ip), vehicle: alcohol 94 % of control | dose: 400.0 mg/kg/injection, schedule: Q01DX009 (ip), vehicle: alcohol 110 % of control

CCOC(=O)/C=C\COC(=O)CC#N
inactive: [14] 102 % of control | [5] 107 % of control | [6] 98 % of control

O=C(N/N=C/C(CC(O)C(O)CO)=N/NC(=O)c1ccc(Cl)cc1)c1ccc(Cl)cc1 (stereo not drawn)
inactive: dose: 100.0 mg/kg/injection, schedule: Q01DX009 (ip), vehicle: Klucel (hydroxypropylcellulose) (HPC) 109 % of control | dose: 200.0 mg/kg/injection, schedule: Q01DX009 (ip), vehicle: Klucel (hydroxypropylcellulose) (HPC) 97 % of control

C/C=C/c1nc2c([nH]1)c(=O)n(C)c(=O)n2C
inactive: dose: 50.0 mg/kg/injection, schedule: Q01DX001 (ip), vehicle: saline 107 % of control | [13] 107 % of control | [15] 104 % of control | [16] 98 % of control

CNC(=O)NC1C(O)C(OC)OC2COC(c3ccccc3)OC21 (stereo not drawn)
inactive: dose: 100.0 mg/kg/injection, schedule: Q04DX003 (ip), vehicle: saline with Tween-80 92 % of control | dose: 200.0 mg/kg/injection, schedule: Q04DX003 (ip), vehicle: saline with Tween-80 92 % of control

Cc1cc(C[P+](c2ccccc2)(c2ccccc2)c2ccccc2)c(C[P+](c2ccccc2)(c2ccccc2)c2ccccc2)cc1C
inactive: dose: 1.5 mg/kg/injection, schedule: Q04DX003 (ip), vehicle: saline 104 % of control | dose: 3.0 mg/kg/injection, schedule: Q01DX009 (ip), vehicle: saline 97 % of control | dose: 3.0 mg/kg/injection, schedule: Q04DX003 (ip), vehicle: saline 106 % of control | dose: 6.0 mg/kg/injection, schedule: Q01DX009 (ip), vehicle: saline 94 % of control | dose: 6.0 mg/kg/injection, schedule: Q04DX003 (ip), vehicle: saline 98 % of control

C(=C1/CC2CCC1C2)/c1ccccc1 (stereo not drawn)
inactive: [13] 98 % of control | dose: 100.0 mg/kg/injection, schedule: Q04DX003 (ip), vehicle: saline 93 % of control | [15] 103 % of control | dose: 200.0 mg/kg/injection, schedule: Q04DX003 (ip), vehicle: saline 93 % of control | [16] 101 % of control | dose: 400.0 mg/kg/injection, schedule: Q04DX003 (ip), vehicle: saline 89 % of control
